Measured values reported in PubChem BioAssay (NCI).
Several values for one entry are separate records, joined by “and”; a condition that tells them apart may be missing. Equal values may be shown once.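 How tested: cells in 96-well plates exposed to compound for 48 hours at five concentrations. GI50 marks 50% less growth. TGI: total growth inhibition.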

Legend:
Assay in all cases: growth of human tumour cells (NCI), 48 h
786-0 renal = system: 786-0 renal
HCC-2998 colon = system: HCC-2998 colon
HOP-62 NSCLC = system: HOP-62 NSCLC
HT29 colon = system: HT29 colon
MALME-3M melanoma = system: MALME-3M melanoma
OVCAR-4 ovarian = system: OVCAR-4 ovarian
SF-268 CNS = system: SF-268 CNS
SK-MEL-2 melanoma = system: SK-MEL-2 melanoma
SN12C renal = system: SN12C renal
UACC-257 melanoma = system: UACC-257 melanoma

| Compound | GI50 (786-0 renal) | TGI (786-0 renal) | GI50 (HCC-2998 colon) | TGI (HCC-2998 colon) | GI50 (HOP-62 NSCLC) | TGI (HOP-62 NSCLC) | GI50 (HT29 colon) | TGI (HT29 colon) | GI50 (MALME-3M melanoma) | TGI (MALME-3M melanoma) | GI50 (OVCAR-4 ovarian) | TGI (OVCAR-4 ovarian) | GI50 (SF-268 CNS) | TGI (SF-268 CNS) | GI50 (SK-MEL-2 melanoma) | TGI (SK-MEL-2 melanoma) | GI50 (SN12C renal) | TGI (SN12C renal) | GI50 (UACC-257 melanoma) | TGI (UACC-257 melanoma) |
| --- | --- | --- | --- | --- | --- | --- | --- | --- | --- | --- | --- | --- | --- | --- | --- | --- | --- | --- | --- | --- |
| O=CC(OC(=O)c1ccccc1)C(OC(=O)c1ccccc1)C(COC(c1ccccc1)(c1ccccc1)c1ccccc1)OC(=O)c1ccccc1 (stereo unspecified) | 20 µM | 41 µM | 17.4 µM | 31.5 µM | 18.3 µM | 32.6 µM | 11.7 µM | 26.3 µM | 30.3 µM | 95.2 µM | 17.5 µM | 47.1 µM | 12.7 µM | 32.3 µM | 18.4 µM | 50.4 µM | 17.4 µM | 47.9 µM | 13.9 µM | 34.4 µM |
| Oc1ccc(NC(=S)Nc2ccccc2)cc1 | > 100 µM | > 100 µM | > 100 µM | > 100 µM | > 100 µM | > 100 µM | > 100 µM | > 100 µM | > 100 µM | > 100 µM | > 100 µM | > 100 µM | > 100 µM | > 100 µM | > 100 µM | > 100 µM | > 100 µM | > 100 µM | > 100 µM | > 100 µM |
| CCN(C(=O)N1CCN(c2cc3c(cc2F)c(=O)c(C(=O)O)cn3C2CC2)CC1)c1nc(-c2ccccc2)cs1 | 2.47 µM | 15.5 µM | 3.28 µM | 79.3 µM | 2.82 µM | > 100 µM | 3.2 µM | > 100 µM | 2.77 µM | 9.06 µM | 2.29 µM | 25.9 µM | 3.29 µM | > 100 µM | 2.02 µM | 4.64 µM | 3.44 µM | > 100 µM | 2.83 µM | 7.61 µM |
| CCN(CC)CCNc1c2ccccc2nc2cccc([N+](=O)[O-])c12 | – | 0.0266 µM and 0.0489 µM | – | 0.0315 µM and 0.0156 µM | – | 0.0164 µM | – | 0.0408 µM and 0.0455 µM | 0.013 µM | 0.0231 µM and 0.0287 µM | 0.0279 µM | 0.0289 µM and 0.178 µM | 0.0193 µM | 0.056 µM and 0.42 µM | 0.0102 µM | 0.0185 µM and 0.023 µM | 0.0221 µM | 0.0413 µM and 0.207 µM | 0.022 µM | 0.0502 µM and 0.065 µM |
| C=CC(=O)N[C@@H]1CN(c2nc(Nc3cn(C)nc3OC)c3ncn(C)c3n2)C[C@H]1F | 28.1 µM | > 100 µM | 47.8 µM | > 100 µM | 26.2 µM | > 100 µM | 20.9 µM | > 83.1 µM | 23.4 µM | > 100 µM | 26.7 µM | > 100 µM | 21.5 µM | > 100 µM | 26.1 µM | 78.3 µM | 45.9 µM | > 100 µM | 35.8 µM | > 100 µM |
| CC(=O)OCCOCn1c2ccccc2c2c3c(c4c5ccccc5n(COCCOC(C)=O)c4c21)C(=O)N(Cc1ccccc1)C3=O | – | > 100 µM | – | > 100 µM | – | > 100 µM | – | > 100 µM | – | > 100 µM | – | > 100 µM | – | > 100 µM | – | > 100 µM | – | > 100 µM | – | > 100 µM |
| C#CCN(N=O)C(=O)NC(CCCCNC(=O)OCc1ccccc1)C(=O)OCc1ccccc1 (stereo unspecified) | – | 32.5 µM | – | > 100 µM | – | > 100 µM | – | 46.9 µM | – | 65.1 µM | – | 72.8 µM | – | > 100 µM | – | > 100 µM | – | 97.9 µM | – | 79.5 µM |
| Cc1ccc2nc(NC(=O)C(=O)C(C(=O)c3ccc4ccccc4c3)C3OC(=O)c4ccccc43)sc2c1 (stereo unspecified) | – | 18.5 µM | – | 23.7 µM | – | 26.6 µM | – | 31.3 µM | – | 22.9 µM | – | > 100 µM | – | 31.3 µM | – | 29.3 µM | – | 31.6 µM | – | 31.8 µM |
| CC(=O)NNc1nc(C)c(C(=O)NNC(=O)C(=O)Nc2ccc(Cl)c([N+](=O)[O-])c2)s1 | – | > 100 µM | – | > 100 µM | – | > 100 µM | – | > 100 µM | – | > 100 µM | – | > 100 µM | – | > 100 µM | – | > 100 µM | – | > 100 µM | – | > 100 µM |
| COc1cc(/C=C/C(=O)c2cccc3ccccc23)cc(OC)c1OC | – | 14.8 µM | – | 28.2 µM | – | 18.8 µM | – | 14.4 µM | – | 24.9 µM | – | 19.1 µM | – | 18.2 µM | – | 12.4 µM | – | 12.5 µM | – | 19.7 µM |
| COC(=O)C(=O)C(CC(=O)Nc1cc(Cl)ccc1Cl)C(=O)OC (stereo unspecified) | – | > 100 µM | – | > 100 µM | – | > 100 µM | – | > 100 µM | – | > 100 µM | – | > 100 µM | – | > 100 µM | – | > 100 µM | – | > 100 µM | – | > 100 µM |
| Cc1cc(F)c(C(=O)Nc2cccc(-c3nncn3C(C)C)n2)cc1-n1cnc(C2CC2)c1 | 17.1 µM | > 100 µM | 14.3 µM | > 100 µM | 16.6 µM | 58.8 µM | 18.2 µM | > 100 µM | 23.3 µM | 72.1 µM | 13.1 µM | 97 µM | 21.5 µM | > 100 µM | 23.9 µM | 58.1 µM | 15.6 µM | 62.4 µM | 32.8 µM | 85.7 µM |
| O=C(NCCCCCCCCCCCCNC(=O)c1cnc2ccccc2n1)c1cnc2ccccc2n1 | – | > 100 µM | – | > 100 µM | – | > 100 µM | – | > 100 µM | – | > 100 µM | – | 29.8 µM | – | > 100 µM | – | > 100 µM | – | > 100 µM | – | > 100 µM |
| CCOC(=O)c1oc2c(OC)ccc3c2c1CCC3 | – | > 100 µM | – | > 100 µM | – | > 100 µM | – | > 100 µM | – | > 100 µM | – | > 100 µM | – | > 100 µM | – | > 100 µM | – | > 100 µM | – | 10.9 µM |
| Cc1cccc(C(C)(C)C)c1NC(=O)C(C#N)C1=C(Cl)C(=O)c2ccccc2C1=O (stereo unspecified) | – | 30 µM | – | 29.7 µM | – | 32.2 µM | – | 40.7 µM | – | 31.1 µM | – | 28.9 µM | – | 31.2 µM | – | 30.7 µM | – | 31.5 µM | – | 30.3 µM |
| CCCCC(C(=O)C(=O)Nc1ccc(C)cc1C)C(=O)C(C)C (stereo unspecified) | – | > 100 µM | – | > 100 µM | – | > 100 µM | – | > 100 µM | – | > 100 µM | – | > 100 µM | – | > 100 µM | – | > 100 µM | – | > 100 µM | – | > 100 µM |
| Clc1ccc(-c2cc(-c3ccccc3)nc(N3CCN(CCCNc4ccnc5cc(Cl)ccc45)CC3)n2)cc1 | 1.47 µM | 2.84 µM | 1.56 µM | 3.02 µM | 1.2 µM | 2.78 µM | 0.464 µM | 1.76 µM | 1.81 µM | 3.35 µM | 1.16 µM | 2.61 µM | 1.73 µM | 3.64 µM | 1.82 µM | 3.39 µM | 1.42 µM | 2.84 µM | 1.93 µM | 3.89 µM |
| CCc1cccc(C(C)C)c1NC(=O)CC1Sc2ccccc2NC1=O (stereo unspecified) | – | > 100 µM | – | > 100 µM | – | > 100 µM | – | > 100 µM | – | > 100 µM | – | > 100 µM | – | > 100 µM | – | > 100 µM | – | > 100 µM | – | > 100 µM |
| NCCOc1ccc(/C(=C(/Cl)c2ccccc2)c2ccccc2)cc1 | – | 20.7 µM | – | 14.8 µM | – | 32.7 µM | – | 7.81 µM | – | 24.3 µM | – | 28.7 µM | – | 29.8 µM | – | 29.1 µM | – | 24 µM | – | 24.8 µM |
| O=C(CCc1nc(=S)[nH][nH]1)Nc1cc(Cl)ccc1Cl | – | > 100 µM | – | > 100 µM | – | > 100 µM | – | > 100 µM | – | > 100 µM | – | > 100 µM | – | > 100 µM | – | > 100 µM | – | > 100 µM | – | > 100 µM |
| COc1cccc(/C=N/[N-]C(=O)c2ccncc2)c1[O-].[Mn+2].[OH3+] | 5.43 µM | > 100 µM | 19 µM | > 100 µM | 5.86 µM | > 100 µM | 4.7 µM | > 100 µM | 25.5 µM | > 100 µM | 22.1 µM | > 100 µM | 4.97 µM | 79.5 µM | 25.6 µM | > 100 µM | 17.8 µM | > 100 µM | 5.05 µM | 96.2 µM |
| COc1ccc(C(=O)/C=C/c2sc(Cl)nc2Cl)cc1 | 1.94 µM | 4.94 µM | 1.72 µM | 3.31 µM | 4.59 µM | 21.2 µM | 1.89 µM | 4.66 µM | 0.805 µM | 3.33 µM | 7.28 µM | 20.2 µM | 3.23 µM | 16.4 µM | 11.1 µM | 35.5 µM | 0.408 µM | 3.19 µM | 3.26 µM | 12.7 µM |
| C[C@@H]1CC[C@H]2[C@@H](C)C(O)O[C@@H]3O[C@]4(C)CC[C@@H]1[C@]32OO4 (stereo partly specified) | 1.59 µM | > 48.8 µM | 2.6 µM | > 63.2 µM | 2.99 µM | 18.7 µM | 0.634 µM | 13.5 µM | 1.54 µM | > 66.1 µM | 2.43 µM | > 56.7 µM | 1.4 µM | > 62.7 µM | 2 µM | 15.2 µM | 1.37 µM | > 72.3 µM | 0.748 µM | > 100 µM |
| N#CCCN(CCC#N)c1ccc(/C=C(/NC(=O)c2cc([N+](=O)[O-])ccc2Cl)C(=O)N=[N+]=[N-])cc1 | – | > 100 µM | – | > 100 µM | – | > 100 µM | – | > 100 µM | – | > 100 µM | – | > 100 µM | – | > 100 µM | – | > 100 µM | – | > 100 µM | – | > 100 µM |
